Measurements from US20050070510A1, “Substituted tetracycline compounds as synergistic antifungal agents” (Paratek Pharmaceuticals, Inc., priority 2001, published 2005).

The compounds below were run on Candida albicans (ATCC#90028) (assay: Synergetic antifungal activity with amphotericin B, broth microdilution (NCCLS)). Conditions: amphotericin B alone.
Assay type: cell-based

amphotericin B MIC [µg/mL] | Compound
0.5 | C[C@@H]1[C@H](O)[C@@H](C)/C=C/C=C/C=C/C=C/C=C/C=C/C=C/[C@H](O[C@@H]2O[C@H](C)[C@@H](O)[C@H](N)[C@@H]2O)C[C@@H]2O[C@](O)(C[C@@H](O)C[C@@H](O)[C@H](O)CC[C@@H](O)C[C@@H](O)CC(=O)O[C@H]1C)C[C@H](O)[C@H]2C(=O)O [Amphotericin B]

Each compound was assayed on COS-1 cells (assay: In vitro mammalian cytotoxicity assay (Resazurin)). Conditions: not given.

Compound | In Vitro Cytotoxicity
CN(C)[C@@H]1C(O)=C(C(N)=O)C(=O)[C@@]2(C#N)C(O)=C3C(=O)c4c(O)ccc(-c5cnccn5)c4C[C@@]3(N)C[C@@]12N [UX] | * (toxicities greater than >25 μg/ml are represented by *)
CCc1cncc(-c2ccc(O)c3c2C[C@@]2(N)C[C@@]4(N)[C@H](N(C)C)C(O)=C(C(N)=O)C(=O)[C@@]4(C#N)C(O)=C2C3=O)c1 [UY] | ** (toxicities less than 25 μg/mL are represented by **)
CN(C)[C@@H]1C(O)=C(C(N)=O)C(=O)[C@@]2(C#N)C(O)=C3C(=O)c4c(O)ccc(-c5ccc(NC(=O)CNC(C)(C)C)cc5)c4C[C@@]3(N)C[C@@]12N [UZ] | ** (toxicities less than 25 μg/mL are represented by **)
CN(C)[C@@H]1C(O)=C(C(N)=O)C(=O)[C@@]2(C#N)C(O)=C3C(=O)c4c(O)ccc(-c5ccc(NC(=O)CN)cc5)c4C[C@@]3(N)C[C@@]12N [VA] | ** (toxicities less than 25 μg/mL are represented by **)
CCc1ccnc(-c2ccc(O)c3c2C[C@@]2(N)C[C@@]4(N)[C@H](N(C)C)C(O)=C(C(N)=O)C(=O)[C@@]4(C#N)C(O)=C2C3=O)c1 [VB] | ** (toxicities less than 25 μg/mL are represented by **)
Cc1ccc(-c2ccc(O)c3c2C[C@@]2(N)C[C@@]4(N)[C@H](N(C)C)C(O)=C(C(N)=O)C(=O)[C@@]4(C#N)C(O)=C2C3=O)nc1 [VC] | ** (toxicities less than 25 μg/mL are represented by **)
CN(C)c1cc(CNc2ccccc2)c(O)c2c1C[C@@]1(N)C[C@@]3(N)[C@H](N(C)C)C(O)=C(C(N)=O)C(=O)[C@@]3(C#N)C(O)=C1C2=O [VD] | ** (toxicities less than 25 μg/mL are represented by **)
Cc1ccnc(-c2ccc(O)c3c2C[C@@]2(N)C[C@@]4(N)[C@H](N(C)C)C(O)=C(C(N)=O)C(=O)[C@@]4(C#N)C(O)=C2C3=O)c1 [VE] | ** (toxicities less than 25 μg/mL are represented by **)
CN(C)[C@@H]1C(O)=C(C(N)=O)C(=O)[C@@]2(C#N)C(O)=C3C(=O)c4c(O)ccc(-c5cncc(Br)c5)c4C[C@@]3(N)C[C@@]12N [VF] | ** (toxicities less than 25 μg/mL are represented by **)
COC(=O)C1C(=O)[C@@]2(O)C(O)=C3C(=O)c4c(O)c(N(C)Cc5cc[nH]n5)cc(N(C)C)c4C[C@@]3(N)C[C@@]2(N)[C@H](N(C)C)C1OC (some centres unmarked) [VG] | ** (toxicities less than 25 μg/mL are represented by **)
CN(C)c1cc(NCc2ccc([N+](=O)O)cc2)c(O)c2c1C[C@@]1(N)C[C@@]3(N)[C@H](N(C)C)C(O)=C(C(N)=O)C(=O)[C@@]3(C#N)C(O)=C1C2=O [VH] | ** (toxicities less than 25 μg/mL are represented by **)
Cc1cccc(-c2ccc(O)c3c2C[C@@]2(N)C[C@@]4(N)[C@H](N(C)C)C(O)=C(C(N)=O)C(=O)[C@@]4(C#N)C(O)=C2C3=O)n1 [VJ] | ** (toxicities less than 25 μg/mL are represented by **)
CC(CF)Nc1ccc(-c2ccc(O)c3c2C[C@@]2(N)C[C@@]4(N)[C@H](N(C)C)C(O)=C(C(N)=O)C(=O)[C@@]4(C#N)C(O)=C2C3=O)cc1 (some centres unmarked) [VK] | ** (toxicities less than 25 μg/mL are represented by **)
